Holding throughout (test): biochemical
The target of test [1] is KRas G12D (Homo sapiens, UniProt P01116, G12D).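 Also: TR-FRET displacement binding assay on KRas, read after a one-hour incubation at room temperature, IC50 fitted from percent-of-control values.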
Experimental: (§1) The ability of a compound to bind to KRas was measured using a TR-FRET displacement assay. […] After a 60-minute incubation at room temperature, the reaction was measured using a BMG LABTECH CLARIO star Plus via TR-FRET. […] The POC values were fit to a 4-parameter IC50 equation and the IC50 value reported.
Test [2] addresses KRas G12V (Homo sapiens, UniProt P01116, G12V).
Experimental: as §1
The target of test [3] is KRas G12R (Homo sapiens, UniProt P01116, G12R).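 Also: TR-FRET displacement assay of compound binding to KRas, read after one hour at room temperature, potency from a four-parameter fit of percent-of-control values.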
Chain of KRas G12R (P01116 1-169 isoform P01116-2 G12R): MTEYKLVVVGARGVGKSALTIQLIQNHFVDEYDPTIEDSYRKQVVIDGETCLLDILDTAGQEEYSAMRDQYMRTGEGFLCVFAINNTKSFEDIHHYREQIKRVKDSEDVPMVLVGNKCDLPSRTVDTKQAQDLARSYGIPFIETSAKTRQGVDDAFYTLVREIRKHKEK
Experimental: as §1

pIC50: −log10 of the molar value.

Chain of KRas G12V (P01116 1-169 isoform P01116-2 G12V): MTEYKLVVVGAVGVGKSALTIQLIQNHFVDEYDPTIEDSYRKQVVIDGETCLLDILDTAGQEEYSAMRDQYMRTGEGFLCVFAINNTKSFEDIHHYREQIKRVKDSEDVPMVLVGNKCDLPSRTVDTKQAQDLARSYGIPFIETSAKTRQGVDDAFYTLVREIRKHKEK
Chain of KRas G12D (P01116 1-169 isoform P01116-2 G12D): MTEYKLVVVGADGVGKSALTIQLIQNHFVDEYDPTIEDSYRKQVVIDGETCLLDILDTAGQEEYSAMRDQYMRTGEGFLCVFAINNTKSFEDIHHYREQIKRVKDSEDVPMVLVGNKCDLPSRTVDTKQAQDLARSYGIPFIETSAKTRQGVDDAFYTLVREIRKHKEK

As to `CC1(O)CCCN(c2nc(OCC34CCCN3CCC4)nc3c(F)c(-c4cccc5scnc45)ncc23)C1` (stereo not drawn) [Example 68, 1-(7-(benzo[d]thiazol-4-yl)-8-fluoro-2-((hexahydro-1H-pyrrolizin-7a-yl)methoxy)pyrido[4,3-d]pyrimidin-4-yl)-3-methylpiperidin-3-ol], the figures for the pIC50 in test [1], in test [2] and in test [3] were 4.94, 4.77 and 4.56, respectively.
`CC1(O)CCCN(c2nc(OCC34CCCN3CCC4)nc3c(F)c(-c4cccc5ccccc45)ncc23)C1` (stereo not drawn) [Example 69, 1-(8-fluoro-2-((hexahydro-1H-pyrrolizin-7a-yl)methoxy)-7-(naphthalen-1-yl)pyrido[4,3-d]pyrimidin-4-yl)-3-methylpiperidin-3-ol]: the pIC50 in test [1] was 5.68; in test [2], 5.56; in test [3], 5.38.
The matching figures for `O=C1NCCC2(CCCN(c3nc(OCC45CCCN4CCC5)nc4c(F)c(-c5cccc6cccc(F)c56)ncc34)C2)N1` (stereo not drawn) [Example 72, 8-(8-fluoro-7-(8-fluoronaphthalen-1-yl)-2-((tetrahydro-1H-pyrrolizin-7a(5H)-yl)methoxy)pyrido[4,3-d]pyrimidin-4-yl)-1,3,8-triazaspiro[5.5]undecan-2-one]: 4.85, 4.97 and 4.85.
The matching figures for `OC1CC2CC(C1)N(c1nc(OCC34CCCN3CCC4)nc3c(F)c(-c4cccc5cccc(F)c45)ncc13)C2` (stereo not drawn) [Example 76, 6-(8-fluoro-7-(8-fluoronaphthalen-1-yl)-2-((hexahydro-1H-pyrrolizin-7a-yl)methoxy)pyrido[4,3-d]pyrimidin-4-yl)-6-azabicyclo[3.2.1]octan-3-ol]: 4.81, 5.50 and 5.05.
For `CN(Cc1cccnc1N)c1nc(OCC23CCCN2CCC3)nc2c(F)c(-c3cccc4cccc(F)c34)ncc12` [Example 79, N-((2-aminopyridin-3-yl)methyl)-8-fluoro-7-(8-fluoronaphthalen-1-yl)-N-methyl-2-((tetrahydro-1H-pyrrolizin-7a(5H)-yl)methoxy)pyrido[4,3-d]pyrimidin-4-amine] the same measures were 4.81, 6.27 and 6.19.
For the compound `Fc1c(-c2cccc3cccc(Cl)c23)ncc2c(N3CCCC(c4c[nH]nn4)C3)nc(OCC34CCCN3CCC4)nc12` (stereo not drawn) [Example 108, 4-(3-(1H-1,2,3-triazol-4-yl)piperidin-1-yl)-7-(8-chloronaphthalen-1-yl)-8-fluoro-2-((tetrahydro-1H-pyrrolizin-7a(5H)-yl)methoxy)pyrido[4,3-d]pyrimidine], the results for the pIC50 in test [1], in test [2] and in test [3] were 4.71, 5.09 and 5.38, respectively.
The matching figures for `CC1(O)CCCN(c2nc(OCC34CCCN3CCC4)nc3c(F)c(-c4cc(O)cc5ccccc45)ncc23)C1` (stereo not drawn) [Example 151]: 7.92, 8.10 and 8.05.
The matching figures for `CCc1c(F)ccc2cc(O)cc(-c3ncc4c(N(C)Cc5cn[nH]c5)nc(OC[C@@]56CCCN5C[C@H](F)C6)nc4c3F)c12` [Example 163, 4-(4-(((1H-pyrazol-4-yl)methyl)(methyl)amino)-8-fluoro-2-(((2R,7aS)-2-fluorohexahydro-1H-pyrrolizin-7a-yl)methoxy)pyrido[4,3-d]pyrimidin-7-yl)-5-ethyl-6-fluoronaphthalen-2-ol]: 7.02, 7.85 and 7.77.
For the compound `CN1CCC[C@H]1COc1nc(N2CCOCC2)c2cnc(-c3cc(O)cc4ccccc34)c(F)c2n1` [Example 195, (S)-4-(8-fluoro-2-((1-methylpyrrolidin-2-yl)methoxy)-4-morpholinopyrido[4,3-d]pyrimidin-7-yl)naphthalen-2-ol], the values for the pIC50 in test [1], in test [2] and in test [3] were 4.78, 5.31 and 5.77, respectively.
For `CN(CCC(N)=O)c1nc(OCC23CCCN2CCC3)nc2c(F)c(-c3cccc4cccc(F)c34)ncc12` [Example 226, 3-((8-fluoro-7-(8-fluoronaphthalen-1-yl)-2-((hexahydro-1H-pyrrolizin-7a-yl)methoxy)pyrido[4,3-d]pyrimidin-4-yl)(methyl)amino)propanamide] the same measures were 5.22, 4.85 and 4.28.
In the case of `Nc1n[nH]c(CCNc2nc(OCC34CCCN3CCC4)nc3c(F)c(-c4cccc5cccc(F)c45)ncc23)n1` [Example 238, N-(2-(3-amino-1H-1,2,4-triazol-5-yl)ethyl)-8-fluoro-7-(8-fluoronaphthalen-1-yl)-2-((hexahydro-1H-pyrrolizin-7a-yl)methoxy)pyrido[4,3-d]pyrimidin-4-amine], the pIC50 was at most 4.00 in test [1], 4.71 in test [2] and 5.04 in test [3].
The matching figures for `NC(=O)NC1CCCN(c2nc(OCC34CCCN3CCC4)nc3c(F)c(-c4cccc5cccc(F)c45)ncc23)C1` (stereo not drawn) [Example 241, 1-(1-(8-fluoro-7-(8-fluoronaphthalen-1-yl)-2-((hexahydro-1H-pyrrolizin-7a-yl)methoxy)pyrido[4,3-d]pyrimidin-4-yl)piperidin-3-yl)urea]: 4.77, 4.87 and 5.06.
For `Fc1c(-c2cccc3cccc(F)c23)ncc2c(N3CCCn4nccc4C3)nc(OCC34CCCN3CCC4)nc12` [Example 245, 4-(7,8-dihydro-4H-pyrazolo[1,5-a][1,4]diazepin-5(6H)-yl)-8-fluoro-7-(8-fluoronaphthalen-1-yl)-2-((hexahydro-1H-pyrrolizin-7a-yl)methoxy)pyrido[4,3-d]pyrimidine] the same measures were 5.52, 4.93 and 5.01.
The matching figures for `Fc1c(-c2cccc3cccc(F)c23)ncc2c(N3CCCc4ncccc4C3)nc(OCC34CCCN3CCC4)nc12` [Example 246, 6-(8-fluoro-7-(8-fluoronaphthalen-1-yl)-2-((hexahydro-1H-pyrrolizin-7a-yl)methoxy)pyrido[4,3-d]pyrimidin-4-yl)-6,7,8,9-tetrahydro-5H-pyrido[3,2-c]azepine]: 5.19, 4.65 and 4.95.
As to `NS(=O)(=O)OC1CCCN(c2nc(OCC34CCCN3CCC4)nc3c(F)c(-c4cccc5cccc(F)c45)ncc23)C1` (stereo not drawn) [Example 248, 1-(8-fluoro-7-(8-fluoronaphthalen-1-yl)-2-((tetrahydro-1H-pyrrolizin-7a(5H)-yl)methoxy)pyrido[4,3-d]pyrimidin-4-yl)piperidin-3-yl sulfamate], the pIC50 in test [1] was 5.17; in test [2], 5.01; in test [3] it was 4.98.
The matching figures for `Cc1cc2n(n1)CCCN(c1nc(OCC34CCCN3CCC4)nc3c(F)c(-c4cccc5cccc(F)c45)ncc13)C2` [Example 254, 8-fluoro-7-(8-fluoronaphthalen-1-yl)-2-((hexahydro-1H-pyrrolizin-7a-yl)methoxy)-4-(2-methyl-7,8-dihydro-4H-pyrazolo[1,5-a][1,4]diazepin-5(6H)-yl)pyrido[4,3-d]pyrimidine]: 5.55, 4.97 and 5.10.
The matching figures for `OC1CN(c2nc(OCC34CCCN3CCC4)nc3c(F)c(-c4cccc5cccc(F)c45)ncc23)Cc2ccnn2C1` (stereo not drawn) [Example 255, 5-(8-fluoro-7-(8-fluoronaphthalen-1-yl)-2-((hexahydro-1H-pyrrolizin-7a-yl)methoxy)pyrido[4,3-d]pyrimidin-4-yl)-5,6,7,8-tetrahydro-4H-pyrazolo[1,5-a][1,4]diazepin-7-ol]: 5.21, 4.96 and 4.82.
Consider `CN(C)c1cc2n(n1)CCCN(c1nc(OCC34CCCN3CCC4)nc3c(F)c(-c4cccc5cccc(F)c45)ncc13)C2` [Example 264, 5-(8-fluoro-7-(8-fluoronaphthalen-1-yl)-2-((hexahydro-1H-pyrrolizin-7a-yl)methoxy)pyrido[4,3-d]pyrimidin-4-yl)-N,N-dimethyl-5,6,7,8-tetrahydro-4H-pyrazolo[1,5-a][1,4]diazepin-2-amine], for which the negative logarithm of the IC50 (pIC50) in test [1] was 5.09; in test [2], 4.87; in test [3], 5.01.
The matching figures for `O=C1CC2(CCCCN(c3nc(OCC45CCCN4CCC5)nc4c(F)c(-c5cccc6cccc(F)c56)ncc34)C2)N1` (stereo not drawn) [Example 266, 6-(8-fluoro-7-(8-fluoronaphthalen-1-yl)-2-((hexahydro-1H-pyrrolizin-7a-yl)methoxy)pyrido[4,3-d]pyrimidin-4-yl)-1,6-diazaspiro[3.6]decan-2-one]: 5.22, 5.28 and 4.86.
`OC[C@@H]1CCCN(c2nc(OCC34CCCN3CCC4)nc3c(F)c(-c4cccc5cccc(F)c45)ncc23)C1` [Example 268, (R)-(1-(8-fluoro-7-(8-fluoronaphthalen-1-yl)-2-((hexahydro-1H-pyrrolizin-7a-yl)methoxy)pyrido[4,3-d]pyrimidin-4-yl)piperidin-3-yl)methanol]: the pIC50 in test [1] is 4.95; in test [2] it was 5.19; in test [3], 5.05.
The matching figures for `O=S1(=O)CCC(Nc2nc(OCC34CCCN3CCC4)nc3c(F)c(-c4cccc5cccc(F)c45)ncc23)C1` (stereo not drawn) [Example 279, 3-((8-fluoro-7-(8-fluoronaphthalen-1-yl)-2-((hexahydro-1H-pyrrolizin-7a-yl)methoxy)pyrido[4,3-d]pyrimidin-4-yl)amino)tetrahydrothiophene 1,1-dioxide]: 4.46, 5.47 and 5.44.
Regarding `CCc1cccc2cccc(-c3ncc4c(N5CCCOCC5)nc(OCC56CCCN5CCC6)nc4c3F)c12` [Example 334, 4-(7-(8-ethylnaphthalen-1-yl)-8-fluoro-2-((hexahydro-1H-pyrrolizin-7a-yl)methoxy)pyrido[4,3-d]pyrimidin-4-yl)-1,4-oxazepane], the pIC50 in test [1] was 5.83; in test [2], 6.16; in test [3], 6.13.

The values are drawn from US12398154B2, “Azaquinazoline pan-KRas inhibitors” (Mirati Therapeutics, Inc., priority 2020, dated 2025).
